Measured values from patent publication US10669283B2, “Compound and pharmacologically acceptable salt thereof” (MEIJI SEIKA PHARMA CO., LTD., priority 2016, dated 2020).

System: PDE4
Experiment: PDE4 inhibition, scintillation proximity assay (SPA);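 note: A below 100 nM B 100 to below 1000 nM C 1000 nM or more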
Format: biochemical
Details: scintillation proximity assay (SPA); evaluated as classes A, B, C; read-out: PDE4 Inhibitory Activity (concentration for the inhibition rate of 50%)
In short: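 Compound pre-diluted 1:10 in 50 mM Tris-HCl pH 7.4, 8.3 mM MgCl2, 1.7 mM EGTA, 3 mg/mL BSA, then incubated with PDE4 and [2,8-3H]-cAMP for 120 min at room temperature. Product captured on ZnSO4-containing YSi-SPA beads for 15 min; radioactivity counted against no-enzyme blank and DMSO control.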

SMILES	IC50 [nM]
O=C(c1ccc(-c2nccs2)c2oc(N3CC4CCC(C3)N4)nc12)N1CCOCC1 [Example 116, (2-(3,8-Diazabicyclo[3.2.1]octan-3-yl)-7-(thiazol-2-yl)benzo[d]oxazol-4-yl)(morpholino)methanone]	< 100
O=C(c1ccc(-c2nccs2)c2oc(N3CC4CCC(C3)N4)nc12)N1CCCCC1 [Example 117, (2-(3,8-Diazabicyclo[3.2.1]octan-3-yl)-7-(thiazol-2-yl)benzo[d]oxazol-4-yl)(piperidin-1-yl)methanone]	< 100
OC(c1ccc(-c2nccs2)c2oc(N3CC4CCC(C3)N4)nc12)C(F)(F)F (stereo not drawn) [Example 118, 1-(2-(3,8-Diazabicyclo[3.2.1]octan-3-yl)-7-(thiazol-2-yl)benzo[d]oxazol-4-yl)-2,2,2-trifluoroethan-1-ol]	< 100
OC(c1ccc(-c2nccs2)c2oc(N3CC4CCC(C3)N4)nc12)C(F)(F)F (stereo not drawn) [Example 119, 1-(2-(3,8-Diazabicyclo[3.2.1]octan-3-yl)-7-(thiazol-2-yl)benzo[d]oxazol-4-yl)-2,2,2-trifluoroethan-1-ol]	< 100
OC(c1ccc(-c2nccs2)c2oc(N3CC4CC(C3)N4)nc12)C(F)(F)F (stereo not drawn) [Example 120, 1-(2-(3,6-Diazabicyclo[3.1.1]heptan-3-yl)-7-(thiazol-2-yl)benzo[d]oxazol-4-yl)-2,2,2-trifluoroethan-1-ol]	< 100
OC(c1ccc(-c2nccs2)c2oc(N3CC4CC(C3)N4)nc12)C(F)(F)F (stereo not drawn) [Example 121, 1-(2-(3,6-Diazabicyclo[3.1.1]heptan-3-yl)-7-(thiazol-2-yl)benzo[d]oxazol-4-yl)-2,2,2-trifluoroethan-1-ol]	< 100
COC(c1ccc(-c2nccs2)c2oc(N3CC4CC(C3)N4)nc12)C(F)(F)F (stereo not drawn) [Example 122, 2-(3,6-Diazabicyclo[3.1.1]heptan-3-yl)-7-(thiazol-2-yl)-4-(2,2,2-trifluoro-1-methoxyethyl)benzo[d]oxazole]	< 100
COC(c1ccc(-c2nccs2)c2oc(N3CC4CC(C3)N4)nc12)C(F)(F)F (stereo not drawn) [Example 123, 2-(3,6-Diazabicyclo[3.1.1]heptan-3-yl)-7-(thiazol-2-yl)-4-(2,2,2-trifluoro-1-methoxyethyl)benzo[d]oxazole]	< 100
CC(O)c1ccc(-c2nccs2)c2oc(N3CC4CCC(C3)N4)nc12 (stereo not drawn) [Example 124, 1-(2-(3,8-Diazabicyclo[3.2.1]octan-3-yl)-7-(thiazol-2-yl)benzo[d]oxazol-4-yl)ethan-1-ol]	< 100
OC(c1ccc(-c2nccs2)c2oc(N3CC4CC(C3)N4)nc12)C(F)F (stereo not drawn) [Example 125, 1-(2-(3,6-Diazabicyclo[3.1.1]heptan-3-yl)-7-(thiazol-2-yl)benzo[d]oxazol-4-yl)-2,2-difluoroethan-1-ol]	< 100
CC(O)(c1ccc(-c2nccs2)c2oc(N3CC4CC(C3)N4)nc12)C(F)F (stereo not drawn) [Example 126, 2-(2-(3,6-Diazabicyclo[3.1.1]heptan-3-yl)-7-(thiazol-2-yl)benzo[d]oxazol-4-yl)-1,1-difluoropropan-2-ol]	< 100
CC(C)(O)COC(c1ccc(-c2nccs2)c2oc(N3CC4CC(C3)N4)nc12)C(F)F (stereo not drawn) [Example 127, 1-(1-(2-(3,6-Diazabicyclo[3.1.1]heptan-3-yl)-7-(thiazol-2-yl)benzo[d]oxazol-4-yl)-2,2-difluoroethoxy)-2-methylpropan-2-ol]	< 100
OC(c1ccc(-c2nccs2)c2oc(N3CC4CCC(C3)N4)nc12)C(F)F (stereo not drawn) [Example 128, 1-(2-(3,8-Diazabicyclo[3.2.1]octan-3-yl)-7-(thiazol-2-yl)benzo[d]oxazol-4-yl)-2,2-difluoroethan-1-ol]	< 100
CC(O)(c1ccc(-c2nccs2)c2oc(N3CC4CCC(C3)N4)nc12)C(F)F (stereo not drawn) [Example 129, 2-(2-(3,8-Diazabicyclo[3.2.1]octan-3-yl)-7-(thiazol-2-yl)benzo[d]oxazol-4-yl)-1,1-difluoropropan-2-ol]	< 100
COC(c1ccc(-c2nccs2)c2oc(N3CC4CC(C3)N4)nc12)C(F)F (stereo not drawn) [Example 130, 2-(3,6-Diazabicyclo[3.1.1]heptan-3-yl)-4-(2,2-difluoro-1-methoxyethyl)-7-(thiazol-2-yl)benzo[d]oxazole]	< 100
COC(c1ccc(-c2nccs2)c2oc(N3CC4CCC(C3)N4)nc12)C(F)F (stereo not drawn) [Example 131, 2-(3,8-Diazabicyclo[3.2.1]octan-3-yl)-4-(2,2-difluoro-1-methoxyethyl)-7-(thiazol-2-yl)benzo[d]oxazole]	< 100
OCc1ccc(-c2nccs2)c2oc(N3CC4CCC(C3)N4)nc12 [Example 132, (2-(3,8-Diazabicyclo[3.2.1]octan-3-yl)-7-(thiazol-2-yl)benzo[d]oxazol-4-yl)methanol]	< 100
OCc1ccc(-c2nccs2)c2oc(N3CC4CC(C3)N4)nc12 [Example 133, (2-(3,6-Diazabicyclo[3.1.1]heptan-3-yl)-7-(thiazol-2-yl)benzo[d]oxazol-4-yl)methanol]	< 100
OCc1ccc(-c2nccs2)c2oc(N3CC4CCCC(C3)N4)nc12 [Example 134, (2-(3,9-Diazabicyclo[3.3.1]nonan-3-yl)-7-(thiazol-2-yl)benzo[d]oxazol-4-yl)methanol]	< 100
OC(c1cc(-c2nccs2)c2oc(N3CC4CC(C3)N4)nc2c1)C(F)(F)F (stereo not drawn) [Example 135, 1-(2-(3,6-Diazabicyclo[3.1.1]heptan-3-yl)-7-(thiazol-2-yl)benzo[d]oxazol-5-yl)-2,2,2-trifluoroethan-1-ol]	< 100
OC(c1cc(-c2nccs2)c2oc(N3CC4CCCC(C3)N4)nc2c1)C(F)(F)F (stereo not drawn) [Example 136, 1-(2-(3,9-Diazabicyclo[3.3.1]nonan-3-yl)-7-(thiazol-2-yl)benzo[d]oxazol-5-yl)-2,2,2-trifluoroethan-1-ol]	< 100
OC(c1cc(-c2nccs2)c2oc(N3CC4CCC(C3)N4)nc2c1)C(F)(F)F (stereo not drawn) [Example 138, 1-(2-(3,8-Diazabicyclo[3.2.1]octan-3-yl)-7-(thiazol-2-yl)benzo[d]oxazol-5-yl)-2,2,2-trifluoroethan-1-ol]	< 100
OC(c1cc(-c2nccs2)c2oc(N3CC4CCC(C3)N4)nc2c1)C(F)(F)F (stereo not drawn) [Example 139, 1-(2-(3,8-Diazabicyclo[3.2.1]octan-3-yl)-7-(thiazol-2-yl)benzo[d]oxazol-5-yl)-2,2,2-trifluoroethan-1-ol]	< 100
OC(c1cc(-n2cccn2)c2oc(N3CC4CCC(C3)N4)nc2c1)C(F)(F)F (stereo not drawn) [Example 140, 1-(2-(3,8-Diazabicyclo[3.2.1]octan-3-yl)-7-(1H-pyrazol-1-yl)benzo[d]oxazol-5-yl)-2,2,2-trifluoroethan-1-ol]	< 100
CC(=O)OC(c1cc(-c2nccs2)c2oc(N3CC4CCC(C3)N4)nc2c1)C(F)(F)F (stereo not drawn) [Example 141, 1-(2-(3,8-Diazabicyclo[3.2.1]octan-3-yl)-7-(thiazol-2-yl)benzo[d]oxazol-5-yl)-2,2,2-trifluoroethyl acetate]	< 100
COC(c1cc(-c2nccs2)c2oc(N3CC4CCC(C3)N4)nc2c1)C(F)(F)F (stereo not drawn) [Example 142, 2-(3,8-Diazabicyclo[3.2.1]octan-3-yl)-7-(thiazol-2-yl)-5-(2,2,2-trifluoro-1-methoxyethyl)benzo[d]oxazole]	< 100
COC(c1cc(-c2nccs2)c2oc(N3CC4CCC(C3)N4)nc2c1)C(F)(F)F (stereo not drawn) [Example 143, 2-(3,8-Diazabicyclo[3.2.1]octan-3-yl)-7-(thiazol-2-yl)-5-(2,2,2-trifluoro-1-methoxyethyl)benzo[d]oxazole]	< 100
